Data set [1] can be described thus: Dissociation constant, pKa in deuterated water solution. The format is physicochemical. As to conditions: read-out: Apparent_pKa.
A further data set has as its system C6. The experiment in a line: Cytotoxicity in rat C6 cells assessed as intracellular release of lactic dehydrogenase. It is filed as functional.
Data set [2] in a line: Dissociation constant, pKa in presence of fetal bovine serum. To be noted: cattle, solution containing fetal bovine serum; read-out: Apparent_pKa. The format is physicochemical.

Structures are written as SMILES.

Consider `OC(Cn1ccnc1)Cn1ccnc1`, for which the pKa in data set [1] worked out at 6.45.

Regarding `O[C@@H](Cn1ccnc1)[C@@H](O)Cn1ccnc1`, in the data set on C6, the Activity is less than 10%. The pKa in data set [2] worked out at 6.67; in data set [1] it was 6.56.

Take `O[C@@H]([C@H](O)[C@H](O)Cn1ccnc1)[C@H](O)Cn1ccnc1`: the Activity in the data set with C6 was less than 10%. The pKa was 6.63 in data set [2] and 7 in data set [1].
